PubChem BioAssay AID248 (DTP/NCI, 2004)
Several values for one entry are separate records, joined by “and”; a condition that tells them apart may be missing. Equal values may be shown once. Toxic doses and inconclusive results are not listed. No stated cut-off is given here; in the data, active means T/C of 150% or more; inactive means T/C below 125%.

Tested on: L1210 leukemia ip in BDF1 mice, survival T/C
Experiment: NCI In Vivo Anticancer Drug Screen. Data for tumor model L1210 Leukemia (intraperitoneal) in B6D2F1 (BDF1) mice
Settings: endpoint: mean survival time, higher = longer survival
Summary of the method: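 Transplanted-tumor mice were given test agent; controls received vehicle only. Survival readings from the two groups were divided (treated over control).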

[1] = dose: 100.0 mg/kg/injection, schedule: Q04DX002 (ip), vehicle: saline
[2] = dose: 200.0 mg/kg/injection, schedule: Q04DX002 (ip), vehicle: saline
[3] = dose: 100.0 mg/kg/injection, schedule: Q01DX001 (ip), vehicle: saline
[4] = dose: 100.0 mg/kg/injection, schedule: Q04DX003 (ip), vehicle: Klucel (hydroxypropylcellulose) (HPC)
[5] = dose: 200.0 mg/kg/injection, schedule: Q04DX003 (ip), vehicle: Klucel (hydroxypropylcellulose) (HPC)
[6] = dose: 400.0 mg/kg/injection, schedule: Q04DX003 (ip), vehicle: Klucel (hydroxypropylcellulose) (HPC)
[7] = dose: 100.0 mg/kg/injection, schedule: Q01DX009 (ip), vehicle: Klucel (hydroxypropylcellulose) (HPC)
[8] = dose: 200.0 mg/kg/injection, schedule: Q01DX009 (ip), vehicle: Klucel (hydroxypropylcellulose) (HPC)
[9] = dose: 400.0 mg/kg/injection, schedule: Q01DX009 (ip), vehicle: Klucel (hydroxypropylcellulose) (HPC)
[10] = dose: 100.0 mg/kg/injection, schedule: Q01DX009 (ip), vehicle: saline with Tween-80
[11] = dose: 200.0 mg/kg/injection, schedule: Q01DX009 (ip), vehicle: saline with Tween-80
[12] = dose: 400.0 mg/kg/injection, schedule: Q01DX009 (ip), vehicle: saline with Tween-80
[13] = dose: 200.0 mg/kg/injection, schedule: Q04DX003 (ip), vehicle: saline with Tween-80
[14] = dose: 400.0 mg/kg/injection, schedule: Q04DX003 (ip), vehicle: saline with Tween-80
[15] = dose: 100.0 mg/kg/injection, schedule: Q04DX003 (ip), vehicle: acetone
[16] = dose: 200.0 mg/kg/injection, schedule: Q01DX001 (ip), vehicle: saline
[17] = dose: 200.0 mg/kg/injection, schedule: Q04DX003 (ip), vehicle: acetone
[18] = dose: 400.0 mg/kg/injection, schedule: Q01DX001 (ip), vehicle: saline
[19] = dose: 400.0 mg/kg/injection, schedule: Q01DX009 (ip), vehicle: saline
[20] = dose: 100.0 mg/kg/injection, schedule: Q04DX003 (ip), vehicle: saline with Tween-80

Measured: T/C

COc1ccc(OCC(=O)N2CCCCCC2)cc1
inactive: dose: 50.0 mg/kg/injection, schedule: Q01DX001 (ip), vehicle: carboxymethylcellulose (CMC) 100 % of control | dose: 50.0 mg/kg/injection, schedule: Q01DX009 (ip), vehicle: carboxymethylcellulose (CMC) 94 % of control | dose: 50.0 mg/kg/injection, schedule: Q04DX003 (ip), vehicle: carboxymethylcellulose (CMC) 103 % of control | dose: 100.0 mg/kg/injection, schedule: Q01DX001 (ip), vehicle: carboxymethylcellulose (CMC) 106 % of control | dose: 100.0 mg/kg/injection, schedule: Q01DX009 (ip), vehicle: carboxymethylcellulose (CMC) 94 % of control and 96 % of control | dose: 100.0 mg/kg/injection, schedule: Q04DX002 (ip), vehicle: carboxymethylcellulose (CMC) 91 % of control | dose: 100.0 mg/kg/injection, schedule: Q04DX003 (ip), vehicle: carboxymethylcellulose (CMC) 100 % of control | dose: 200.0 mg/kg/injection, schedule: Q01DX001 (ip), vehicle: carboxymethylcellulose (CMC) 109 % of control | dose: 200.0 mg/kg/injection, schedule: Q01DX009 (ip), vehicle: carboxymethylcellulose (CMC) 97 % of control and 100 % of control | dose: 200.0 mg/kg/injection, schedule: Q04DX002 (ip), vehicle: carboxymethylcellulose (CMC) 105 % of control | dose: 200.0 mg/kg/injection, schedule: Q04DX003 (ip), vehicle: carboxymethylcellulose (CMC) 102 % of control | dose: 400.0 mg/kg/injection, schedule: Q04DX002 (ip), vehicle: carboxymethylcellulose (CMC) 96 % of control

NC(=O)NC(=O)CC1NC(=O)NC1=O (stereo not given)
inactive: [1] 103 % of control | [2] 106 % of control | dose: 400.0 mg/kg/injection, schedule: Q04DX002 (ip), vehicle: saline 87 % of control

CCOC(=O)/C(=C/c1ccc(OC)c(OC)c1)P(=O)(OCC)OCC
inactive: dose: 50.0 mg/kg/injection, schedule: Q01DX001 (ip), vehicle: saline 101 % of control | [3] 95 % of control

Cc1ccc(NC(=O)Nc2c(C)n(C)n(-c3ccccc3)c2=O)c([N+](=O)[O-])c1
inactive: [4] 94 % of control | [5] 91 % of control | [6] 91 % of control

CC(=O)OC1CCC2(C)C(=CCC3C2CCC2(C)C(C(C)N)CCC32)C1 (stereo not given)
inactive: dose: 100.0 mg/kg/injection, schedule: Q01DX001 (sc), vehicle: steriod suspending solution 90 % of control | dose: 400.0 mg/kg/injection, schedule: Q01DX001 (sc), vehicle: steriod suspending solution 90 % of control

O=C(Nc1nccs1)c1cccc(F)c1
inactive: [7] 104 % of control | [8] 110 % of control | [9] 112 % of control

O=c1ccnc[nH]1
inactive: [10] 92 % of control | [11] 93 % of control | [12] 88 % of control

CCCCCCCC(=O)CCCC
inactive: [7] 101 % of control | [4] 103 % of control | [8] 98 % of control | [5] 101 % of control | [9] 102 % of control | [6] 101 % of control

CCSc1nc(N)c(Br)c(Sc2nc(N)nc3nc[nH]c23)n1
inactive: dose: 100.0 mg/kg/injection, schedule: Q01DX Z (ip), vehicle: methylcellulose (MC) 98 % of control

O=C1OC(=O)C2C3C=CC(C3=C(c3ccccc3)c3ccccc3)C12 (stereo not given)
inactive: [7] 92 % of control | [10] 97 % of control | [4] 92 % of control | [8] 97 % of control | [11] 100 % of control | [13] 90 % of control | [6] 87 % of control | [14] 92 % of control

c1ccc2cc(-c3cc4ccccc4s3)ccc2c1
inactive: [3] 106 % of control | dose: 100.0 mg/kg/injection, schedule: Q01DX009 (ip), vehicle: acetone 98 % of control | [15] 100 % of control | [16] 103 % of control | dose: 200.0 mg/kg/injection, schedule: Q01DX009 (ip), vehicle: acetone 104 % of control | [17] 98 % of control | dose: 264.0 mg/kg/injection, schedule: Q01DX009 (ip), vehicle: saline 110 % of control | [18] 104 % of control | [19] 115 % of control | dose: 400.0 mg/kg/injection, schedule: Q04DX003 (ip), vehicle: acetone 90 % of control

C=C1CC(CCCC2CC(=C)C(=O)O2)OC1=O (stereo not given)
inactive: [1] 101 % of control | [2] 111 % of control

Nc1ncnc(N)c1NC(=O)c1ccc(Cl)cc1
inactive: dose: 25.0 mg/kg/injection, schedule: Q01DX001 (ip), vehicle: saline with Tween-80 107 % of control | dose: 50.0 mg/kg/injection, schedule: Q01DX001 (ip), vehicle: saline with Tween-80 104 % of control | dose: 100.0 mg/kg/injection, schedule: Q01DX001 (ip), vehicle: saline with Tween-80 120 % of control

O=C1C=Cc2ccc3c4c(ccc1c24)C=CC3=O
inactive: [15] 98 % of control | [17] 91 % of control

O=C1NC(=O)C(C2CCCCC2)(C2CCCCC2)N1
inactive: dose: 100.0 mg/kg/injection, schedule: Q01DX009 (ip), vehicle: saline 103 % of control | [20] 107 % of control | dose: 200.0 mg/kg/injection, schedule: Q01DX009 (ip), vehicle: saline 94 % of control | [13] 107 % of control | [19] 88 % of control | [14] 93 % of control

O=C1/C(=C/c2ccccc2)Cc2ccccc21
inactive: [10] 95 % of control | [20] 101 % of control | [11] 95 % of control | [13] 95 % of control | [12] 95 % of control | [14] 109 % of control

CCCCCCN=C(N)c1ccc(NC(=O)c2ccc(C(=O)Nc3ccc(C(N)=NCCCCCC)cc3)cc2)cc1
inactive: dose: 0.62 mg/kg/injection, schedule: Q01DX015 (ip), vehicle: methylcellulose (MC) 101 % of control | dose: 1.25 mg/kg/injection, schedule: Q01DX015 (ip), vehicle: methylcellulose (MC) 95 % of control | dose: 2.5 mg/kg/injection, schedule: Q01DX015 (ip), vehicle: methylcellulose (MC) 103 % of control | dose: 5.0 mg/kg/injection, schedule: Q01DX015 (ip), vehicle: methylcellulose (MC) 112 % of control

CC(C)(C)OC(=O)C1OC1(C)c1ccccc1 (stereo not given)
inactive: dose: 75.0 mg/kg/injection, schedule: Q01DX001 (ip), vehicle: other 106 % of control | dose: 150.0 mg/kg/injection, schedule: Q01DX001 (ip), vehicle: other 107 % of control | dose: 300.0 mg/kg/injection, schedule: Q01DX001 (ip), vehicle: other 98 % of control

CC(CC(C)(C)C)C(=O)Cl (stereo not given)
inactive: [3] 95 % of control | [16] 92 % of control | [18] 108 % of control

CC(=O)Nc1ccc(/C=N/Nc2ccccc2)cc1
inactive: [7] 101 % of control | [8] 103 % of control | [9] 101 % of control
